Like-named read-outs stand apart in the source and are kept apart here.
Columns and labels:
[1] = system: hCE1 (CES1); details: hCE1 relative to hiCE; cited from earlier work
[2] = system: carboxylesterases (hiCE, hCE1) in human liver microsomal extracts; type: biochemical; details: for CPT-11 hydrolysis + 876 / Loss in CPT-11 hydrolysis + 876 / Loss in CPT-11 hydrolysis + 876 [%]: 10μM 876
[3] = system: carboxylesterases (CE) in human liver microsomal extracts; assay: CE activity; type: biochemical; details: 10μM 876

For `CCc1c2c(nc3ccc(OC(=O)N4CCC(N5CCCCC5)CC4)cc13)-c1cc3c(c(=O)n1C2)COC(=O)[C@]3(O)CC` [CPT-11, 7-ethyl-10-[4-(1-piperidino)-1-piperidino]carbonyloxycamptothecin], the “Km for CPT-11, hCE1 higher than hiCE” value [1] is given as ~ 25 fold.
For `O=S(=O)(Nc1c(F)c(F)c(NS(=O)(=O)c2ccc(Br)cc2)c(F)c1F)c1ccc(Br)cc1` [compound 876, N,N'-(2,3,5,6-tetrafluoro-1,4-phenylene)bis(4-bromobenzenesulfonamide)], the “CPT-11 hydrolysis + 876” value ([2]; liver microsomal extract HG03) was 29.6 ± 0.64 pmol/mg/h, the “Loss in CPT-11 hydrolysis + 876” value ([2]; liver microsomal extract HG03) was 14.7 pmol/mg/h and the “Loss in CPT-11 hydrolysis + 876 [%]” value ([2]; liver microsomal extract HG03) was 33.1%. The “CPT-11 hydrolysis + 876” value ([2]; liver microsomal extract HG74) was 25.8 ± 1.1 pmol/mg/h, the “Loss in CPT-11 hydrolysis + 876” value ([2]; liver microsomal extract HG74) was 14.1 pmol/mg/h and the “Loss in CPT-11 hydrolysis + 876 [%]” value ([2]; liver microsomal extract HG74) was 35.3%. For the same compound, the “CPT-11 hydrolysis + 876” value ([2]; liver microsomal extract HG93) was 18.2 ± 0.42 pmol/mg/h, the “Loss in CPT-11 hydrolysis + 876” value ([2]; liver microsomal extract HG93) was 12.4 pmol/mg/h and the “Loss in CPT-11 hydrolysis + 876 [%]” value ([2]; liver microsomal extract HG93) was 40.5%. The “CPT-11 hydrolysis + 876” value ([2]; liver microsomal extract HG95) was 16.2 ± 0.21 pmol/mg/h, the “Loss in CPT-11 hydrolysis + 876” value ([2]; liver microsomal extract HG95) was 8.30 pmol/mg/h and the “Loss in CPT-11 hydrolysis + 876 [%]” value ([2]; liver microsomal extract HG95) was 33.9%. The “CPT-11 hydrolysis + 876” value ([2]; liver microsomal extract HG103) was 19.4 ± 0.14 pmol/mg/h, the “Loss in CPT-11 hydrolysis + 876” value ([2]; liver microsomal extract HG103) was 13.2 pmol/mg/h and the “Loss in CPT-11 hydrolysis + 876 [%]” value ([2]; liver microsomal extract HG103) was 40.1%. For the same compound, the “CPT-11 hydrolysis + 876” value ([2]; liver microsomal extract HH13) was 18.5 ± 0.14 pmol/mg/h, the “Loss in CPT-11 hydrolysis + 876” value ([2]; liver microsomal extract HH13) was 15.4 pmol/mg/h and the “Loss in CPT-11 hydrolysis + 876 [%]” value ([2]; liver microsomal extract HH13) was 45.4%. The “CPT-11 hydrolysis + 876” value ([2]; liver microsomal extract HH61) was 13.4 ± 0.07 pmol/mg/h, the “Loss in CPT-11 hydrolysis + 876” value ([2]; liver microsomal extract HH61) was 8.80 pmol/mg/h and the “Loss in CPT-11 hydrolysis + 876 [%]” value ([2]; liver microsomal extract HH61) was 39.7%. For the same compound, the “CPT-11 hydrolysis + 876” value ([2]; liver microsomal extract HH74) was 7.14 ± 0.23 pmol/mg/h, the “Loss in CPT-11 hydrolysis + 876” value ([2]; liver microsomal extract HH74) was 8.22 pmol/mg/h and the “Loss in CPT-11 hydrolysis + 876 [%]” value ([2]; liver microsomal extract HH74) was 53.5%. The “CPT-11 hydrolysis + 876” value ([2]; liver microsomal extract HK37) was 17.0 ± 0.57 pmol/mg/h, the “Loss in CPT-11 hydrolysis + 876” value ([2]; liver microsomal extract HK37) was 18.4 pmol/mg/h and the “Loss in CPT-11 hydrolysis + 876 [%]” value ([2]; liver microsomal extract HK37) was 51.9%. The “CPT-11 hydrolysis + 876” value ([2]; liver microsomal extract SD003) was 34.2 ± 0.92 pmol/mg/h, the “Loss in CPT-11 hydrolysis + 876” value ([2]; liver microsomal extract SD003) was 20.5 pmol/mg/h and the “Loss in CPT-11 hydrolysis + 876 [%]” value ([2]; liver microsomal extract SD003) was 37.5%. For the same compound, the “CPT-11 hydrolysis + 876” value ([2]; liver microsomal extract SD004) was 19.3 ± 1.0 pmol/mg/h, the “Loss in CPT-11 hydrolysis + 876” value ([2]; liver microsomal extract SD004) was 14.6 pmol/mg/h and the “Loss in CPT-11 hydrolysis + 876 [%]” value ([2]; liver microsomal extract SD004) was 43.0%. For the same compound, the “CPT-11 hydrolysis + 876” value ([2]; liver microsomal extract SD104) was 13.7 ± 0.07 pmol/mg/h, the “Loss in CPT-11 hydrolysis + 876” value ([2]; liver microsomal extract SD104) was 5.80 pmol/mg/h and the “Loss in CPT-11 hydrolysis + 876 [%]” value ([2]; liver microsomal extract SD104) was 29.8%. For the same compound, the “CPT-11 hydrolysis + 876” value ([2]; liver microsomal extract SD120) was 18.5 ± 0.14 pmol/mg/h, the “CPT-11 hydrolysis + 876” value ([2]; liver microsomal extract SD123) was 17 ± 0.14 pmol/mg/h and the “Loss in CPT-11 hydrolysis + 876” value ([2]; liver microsomal extract SD123) was 13.0 pmol/mg/h. The “Loss in CPT-11 hydrolysis + 876 [%]” value ([2]; liver microsomal extract SD123) was 43.2%, the “CPT-11 hydrolysis + 876” value ([2]; liver microsomal extract SD124) was 15.8 ± 0.28 pmol/mg/h and the “Loss in CPT-11 hydrolysis + 876” value ([2]; liver microsomal extract SD124) was 11.3 pmol/mg/h. For the same compound, the “Loss in CPT-11 hydrolysis + 876 [%]” value ([2]; liver microsomal extract SD124) was 41.7%, the “CPT-11 hydrolysis + 876” value ([2]; liver microsomal extract SD128) was 16.5 ± 0.35 pmol/mg/h and the “Loss in CPT-11 hydrolysis + 876” value ([2]; liver microsomal extract SD128) was 13.1 pmol/mg/h. The “Loss in CPT-11 hydrolysis + 876 [%]” value ([2]; liver microsomal extract SD128) was 44.3%, the “CPT-11 hydrolysis + 876” value ([2]; liver microsomal extract SD132) was 14.1 ± 0.50 pmol/mg/h and the “Loss in CPT-11 hydrolysis + 876” value ([2]; liver microsomal extract SD132) was 12.6 pmol/mg/h. The “Loss in CPT-11 hydrolysis + 876 [%]” value ([2]; liver microsomal extract SD132) was 47.2%, the “CPT-11 hydrolysis + 876” value ([2]; liver microsomal extract SD134) was 8.49 ± 0.18 pmol/mg/h and the “Loss in CPT-11 hydrolysis + 876” value ([2]; liver microsomal extract SD134) was 8.96 pmol/mg/h. For the same compound, the “Loss in CPT-11 hydrolysis + 876 [%]” value ([2]; liver microsomal extract SD134) was 51.3%, the “CPT-11 hydrolysis + 876” value ([2]; liver microsomal extract SD136) was 33.6 ± 0.64 pmol/mg/h and the “Loss in CPT-11 hydrolysis + 876” value ([2]; liver microsomal extract SD136) was 21.8 pmol/mg/h. The “Loss in CPT-11 hydrolysis + 876 [%]” value ([2]; liver microsomal extract SD136) was 39.3%, the “effect on CPT-11 activation in liver microsomal samples” value ([2]; selective hiCE inhibitor 876) was “unable to reduce the levels of CPT-11 activation in liver microsomal samples to zero” and the “CE activity + 876” value ([3]; liver microsomal extract HG03) was 3759 ± 84 nmol/mg/min. For the same compound, the “Loss in CE activity + 876” value ([3]; liver microsomal extract HG03) was 2816 nmol/mg/min, the “Loss in CE activity + 876 [%]” value ([3]; liver microsomal extract HG03) was 42.8% and the “CE activity + 876” value ([3]; liver microsomal extract HG74) was 4341 ± 152 nmol/mg/min. The “Loss in CE activity + 876” value ([3]; liver microsomal extract HG74) was 2866 nmol/mg/min, the “Loss in CE activity + 876 [%]” value ([3]; liver microsomal extract HG74) was 39.8% and the “CE activity + 876” value ([3]; liver microsomal extract HG93) was 2938 ± 87 nmol/mg/min. The “Loss in CE activity + 876” value ([3]; liver microsomal extract HG93) was 1790 nmol/mg/min, the “Loss in CE activity + 876 [%]” value ([3]; liver microsomal extract HG93) was 37.9% and the “CE activity + 876” value ([3]; liver microsomal extract HG95) was 3285 ± 242 nmol/mg/min. For the same compound, the “Loss in CE activity + 876” value ([3]; liver microsomal extract HG95) was 1840 nmol/mg/min, the “Loss in CE activity + 876 [%]” value ([3]; liver microsomal extract HG95) was 35.9% and the “CE activity + 876” value ([3]; liver microsomal extract HG103) was 2224 ± 202 nmol/mg/min. The “Loss in CE activity + 876” value ([3]; liver microsomal extract HG103) was 1482 nmol/mg/min, the “Loss in CE activity + 876 [%]” value ([3]; liver microsomal extract HG103) was 40.0% and the “CE activity + 876” value ([3]; liver microsomal extract HH13) was 672 ± 47 nmol/mg/min. For the same compound, the “Loss in CE activity + 876” value ([3]; liver microsomal extract HH13) was 221 nmol/mg/min, the “Loss in CE activity + 876 [%]” value ([3]; liver microsomal extract HH13) was 24.8% and the “CE activity + 876” value ([3]; liver microsomal extract HH61) was 3925 ± 125 nmol/mg/min. The “Loss in CE activity + 876” value ([3]; liver microsomal extract HH61) was 1953 nmol/mg/min, the “Loss in CE activity + 876 [%]” value ([3]; liver microsomal extract HH61) was 33.2% and the “CE activity + 876” value ([3]; liver microsomal extract HH74) was 2235 ± 203 nmol/mg/min. For the same compound, the “Loss in CE activity + 876” value ([3]; liver microsomal extract HH74) was 1471 nmol/mg/min, the “Loss in CE activity + 876 [%]” value ([3]; liver microsomal extract HH74) was 39.7% and the “CE activity + 876” value ([3]; liver microsomal extract HK37) was 4052 ± 120 nmol/mg/min. The “Loss in CE activity + 876” value ([3]; liver microsomal extract HK37) was 2280 nmol/mg/min, the “Loss in CE activity + 876 [%]” value ([3]; liver microsomal extract HK37) was 36% and the “CE activity + 876” value ([3]; liver microsomal extract SD003) was 3434 ± 224 nmol/mg/min. For the same compound, the “Loss in CE activity + 876” value ([3]; liver microsomal extract SD003) was 1809 nmol/mg/min, the “Loss in CE activity + 876 [%]” value ([3]; liver microsomal extract SD003) was 34.5% and the “CE activity + 876” value ([3]; liver microsomal extract SD004) was 3460 ± 234 nmol/mg/min. The “Loss in CE activity + 876” value ([3]; liver microsomal extract SD004) was 2162 nmol/mg/min, the “Loss in CE activity + 876 [%]” value ([3]; liver microsomal extract SD004) was 38.5% and the “CE activity + 876” value ([3]; liver microsomal extract SD104) was 3493 ± 146 nmol/mg/min. The “Loss in CE activity + 876” value ([3]; liver microsomal extract SD104) was 1895 nmol/mg/min, the “Loss in CE activity + 876 [%]” value ([3]; liver microsomal extract SD104) was 35.2% and the “CE activity + 876” value ([3]; liver microsomal extract SD120) was 2610 ± 102 nmol/mg/min. The “Loss in CE activity + 876” value ([3]; liver microsomal extract SD120) was 1885 nmol/mg/min, the “Loss in CE activity + 876 [%]” value ([3]; liver microsomal extract SD120) was 41.9% and the “CE activity + 876” value ([3]; liver microsomal extract SD123) was 3874 ± 101 nmol/mg/min. For the same compound, the “Loss in CE activity + 876” value ([3]; liver microsomal extract SD123) was 2071 nmol/mg/min, the “Loss in CE activity + 876 [%]” value ([3]; liver microsomal extract SD123) was 34.8% and the “CE activity + 876” value ([3]; liver microsomal extract SD124) was 1997 ± 189 nmol/mg/min. The “Loss in CE activity + 876” value ([3]; liver microsomal extract SD124) was 1411 nmol/mg/min, the “Loss in CE activity + 876 [%]” value ([3]; liver microsomal extract SD124) was 41.4% and the “CE activity + 876” value ([3]; liver microsomal extract SD128) was 4144 ± 401 nmol/mg/min. The “Loss in CE activity + 876” value ([3]; liver microsomal extract SD128) was 2169 nmol/mg/min, the “Loss in CE activity + 876 [%]” value ([3]; liver microsomal extract SD128) was 34.4% and the “CE activity + 876” value ([3]; liver microsomal extract SD132) was 5018 ± 209 nmol/mg/min. The “Loss in CE activity + 876” value ([3]; liver microsomal extract SD132) was 3176 nmol/mg/min, the “Loss in CE activity + 876 [%]” value ([3]; liver microsomal extract SD132) was 38.8% and the “CE activity + 876” value ([3]; liver microsomal extract SD134) was 345 ± 28 nmol/mg/min. The “Loss in CE activity + 876” value ([3]; liver microsomal extract SD134) was 197 nmol/mg/min, the “Loss in CE activity + 876 [%]” value ([3]; liver microsomal extract SD134) was 36.4% and the “CE activity + 876” value ([3]; liver microsomal extract SD136) was 1719 ± 243 nmol/mg/min. For the same compound, the “Loss in CE activity + 876” value ([3]; liver microsomal extract SD136) was 1477 nmol/mg/min and the “Loss in CE activity + 876 [%]” value ([3]; liver microsomal extract SD136) was 46.2%.

From paper PMC2991631 (Biochemical pharmacology, 2010)
